Reference: paper PMC4051426 (Biochemistry, 2014)

Molecular target: triosephosphate isomerase from chicken muscle (cTIM), loop 6 replacement mutant (L6RM) (Gallus gallus, UniProt P00940, V167P/W168E)
Assay: steady-state kinetics of isomerization
Format: biochemical

triosephosphate isomerase from chicken muscle (cTIM), loop 6 replacement mutant (L6RM), sequence (P00940 2-248 V167P/W168E): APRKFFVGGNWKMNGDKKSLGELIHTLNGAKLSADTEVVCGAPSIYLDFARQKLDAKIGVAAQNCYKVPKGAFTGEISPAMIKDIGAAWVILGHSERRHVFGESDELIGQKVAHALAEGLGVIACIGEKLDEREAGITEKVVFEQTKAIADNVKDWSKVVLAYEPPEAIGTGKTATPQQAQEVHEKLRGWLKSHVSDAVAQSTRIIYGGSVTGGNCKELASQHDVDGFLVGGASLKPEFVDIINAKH

kcat/Km (M^-1 s^-1): 470 M^–1 s^–1 (kcat/Km)
SMILES: O=C[C@H](O)COP(=O)(O)O [GAP, (R)-glyceraldehyde 3-phosphate]
